Measured values taken from ChEMBL document CHEMBL3885861, “Open TG-GATES”.

Organism: Rattus norvegicus
Assay: Open TG-GATES - Regimen: Daily Repeat
Format: toxicity, organism-based, Sprague-Dawley
Set-up: regimen Daily Repeat, gender Male, age 6 weeks
Settings: in vivo, iv, route intravenous injection; for APTT / Bas / Eos / Fbg / Hb / Ht / Lym / MCH / MCHC / MCV / Mono / Neu / PT / Plat / RBC / Ret / WBC: tissue Blood; for KIDNEY_L / KIDNEY_R / KIDNEY_TOTAL: tissue Kidney; for LIVER: tissue Liver; for A/G / ALP / ALT / AST / BUN / CRE / Ca / Cl / DBIL / GLC / IP / K / LDH / Na / PL / RALB / TBIL / TC / TG / TP / gamma-GTP: tissue Plasma
[1] = 6 mg/kg, 72 h, dose level Middle, time 3 day
[2] = 6 mg/kg, […], dose level Middle, time 7 day
[3] = 6 mg/kg, […], dose level Middle, time 14 day
[4] = 6 mg/kg, […], dose level Middle, time 28 day
[5] = 20 mg/kg, 72 h, dose level High, time 3 day
[6] = 20 mg/kg, […], dose level High, time 7 day
[7] = 20 mg/kg, […], dose level High, time 14 day
[8] = 20 mg/kg, […], dose level High, time 28 day

NCCBr [BROMOETHANAMINE]
TERMINAL_BW [1]: 227.7 g
APTT [1]: 22.4 s
Bas [1]: 0%
Eos [1]: 1%
Fbg [1]: 318.4 mg/dL
Hb [1]: 13.8 g/dL
Ht [1]: 40%
Lym [1]: 83.6%
MCH [1]: 21.2 pg
MCHC [1]: 34.4%
MCV [1]: 61.7 fL
Mono [1]: 2%
Neu [1]: 12.2%
PT [1]: 16.2 s
Plat [1]: 121.7 x10_4/uL
RBC [1]: 648 x10_4/ul
Ret [1]: 4.6%
WBC [1]: 75.6 x10_2/uL
KIDNEY_L [1]: 1 g
KIDNEY_R [1]: 1 g
KIDNEY_TOTAL [1]: 2 g
LIVER [1]: 10.9 g
A/G [1]: 1.3
ALP [1]: 1767.4 IU/L
ALT [1]: 39.6 IU/L
AST [1]: 69 IU/L
BUN [1]: 15.6 mg/dL
CRE [1]: 0.2 mg/dL
Ca [1]: 10.9 mg/dL
Cl [1]: 106.6 meq/L
DBIL [1]: 0 mg/dL
GLC [1]: 169 mg/dL
IP [1]: 6.9 mg/dL
K [1]: 4.6 meq/L
LDH [1]: 209.6 IU/L
Na [1]: 142 meq/L
PL [1]: 138.8 mg/dL
RALB [1]: 3.1 g/dL
TBIL [1]: 0.006 mg/dL
TC [1]: 71 mg/dL
TG [1]: 113.8 mg/dL
TP [1]: 5.6 g/dL
gamma-GTP [1]: 1.4 IU/L
TERMINAL_BW [2]: 261 g
TERMINAL_BW [3]: 314.5 g
TERMINAL_BW [4]: 361.2 g
APTT [2]: 23.5 s
Bas [2]: 0%
Eos [2]: 1.4%
Fbg [2]: 282.6 mg/dL
Hb [2]: 13.9 g/dL
Ht [2]: 40.1%
Lym [2]: 83%
MCH [2]: 21.6 pg
MCHC [2]: 34.7%
MCV [2]: 62.2 fL
Mono [2]: 2.8%
Neu [2]: 11.8%
PT [2]: 15.8 s
Plat [2]: 123.4 x10_4/uL
RBC [2]: 645 x10_4/ul
Ret [2]: 3.9%
WBC [2]: 116 x10_2/uL
APTT [3]: 22.4 s
Bas [3]: 0%
Eos [3]: 1.2%
Fbg [3]: 327.4 mg/dL
Hb [3]: 13.8 g/dL
Ht [3]: 40.3%
Lym [3]: 85.2%
MCH [3]: 20.4 pg
MCHC [3]: 34.3%
MCV [3]: 59.5 fL
Mono [3]: 2%
Neu [3]: 10.6%
PT [3]: 15.5 s
Plat [3]: 132 x10_4/uL
RBC [3]: 676.6 x10_4/ul
Ret [3]: 3.8%
WBC [3]: 119.2 x10_2/uL
APTT [4]: 26 s
Bas [4]: 0%
Eos [4]: 1.4%
Fbg [4]: 312.2 mg/dL
Hb [4]: 15.8 g/dL
Ht [4]: 42.9%
Lym [4]: 84.2%
MCH [4]: 20.4 pg
MCHC [4]: 36.9%
MCV [4]: 55.4 fL
Mono [4]: 1.4%
Neu [4]: 12.2%
PT [4]: 16.4 s
Plat [4]: 110.1 x10_4/uL
RBC [4]: 775.2 x10_4/ul
Ret [4]: 2.2%
WBC [4]: 90.4 x10_2/uL
KIDNEY_L [2]: 1.1 g
KIDNEY_R [2]: 1.1 g
KIDNEY_TOTAL [2]: 2.1 g
KIDNEY_L [3]: 1.3 g
KIDNEY_R [3]: 1.2 g
KIDNEY_TOTAL [3]: 2.5 g
KIDNEY_L [4]: 1.3 g
KIDNEY_R [4]: 1.4 g
KIDNEY_TOTAL [4]: 2.7 g
LIVER [2]: 12.5 g
LIVER [3]: 14.7 g
LIVER [4]: 15.7 g
A/G [2]: 1.2
ALP [2]: 1617 IU/L
ALT [2]: 39.4 IU/L
AST [2]: 71.4 IU/L
BUN [2]: 17.6 mg/dL
CRE [2]: 0.2 mg/dL
Ca [2]: 10.8 mg/dL
Cl [2]: 107.4 meq/L
DBIL [2]: 0 mg/dL
GLC [2]: 182.2 mg/dL
IP [2]: 6.9 mg/dL
K [2]: 4.5 meq/L
LDH [2]: 204 IU/L
Na [2]: 141 meq/L
PL [2]: 140 mg/dL
RALB [2]: 3 g/dL
TBIL [2]: 0.002 mg/dL
TC [2]: 72.4 mg/dL
TG [2]: 119 mg/dL
TP [2]: 5.5 g/dL
gamma-GTP [2]: 1.2 IU/L
A/G [3]: 1.1
ALP [3]: 1499 IU/L
ALT [3]: 41 IU/L
AST [3]: 69 IU/L
BUN [3]: 18.2 mg/dL
CRE [3]: 0.2 mg/dL
Ca [3]: 10.8 mg/dL
Cl [3]: 107 meq/L
DBIL [3]: 0 mg/dL
GLC [3]: 170.2 mg/dL
IP [3]: 7.1 mg/dL
K [3]: 4.4 meq/L
LDH [3]: 142.6 IU/L
Na [3]: 143.2 meq/L
PL [3]: 145.8 mg/dL
RALB [3]: 3 g/dL
TBIL [3]: 0.004 mg/dL
TC [3]: 77.6 mg/dL
TG [3]: 98.2 mg/dL
TP [3]: 5.8 g/dL
gamma-GTP [3]: 2.8 IU/L
A/G [4]: 1.1
ALP [4]: 1273.6 IU/L
ALT [4]: 32.8 IU/L
AST [4]: 55 IU/L
BUN [4]: 18.2 mg/dL
CRE [4]: 0.2 mg/dL
Ca [4]: 10.5 mg/dL
Cl [4]: 106.4 meq/L
DBIL [4]: 0 mg/dL
GLC [4]: 185.8 mg/dL
IP [4]: 6.5 mg/dL
K [4]: 4.1 meq/L
LDH [4]: 118 IU/L
Na [4]: 145 meq/L
PL [4]: 131.8 mg/dL
RALB [4]: 3.2 g/dL
TBIL [4]: 0.004 mg/dL
TC [4]: 65.2 mg/dL
TG [4]: 112.2 mg/dL
TP [4]: 6.2 g/dL
gamma-GTP [4]: 2.6 IU/L
TERMINAL_BW [5]: 210.6 g
APTT [5]: 22.4 s
Bas [5]: 0%
Eos [5]: 1%
Fbg [5]: 351 mg/dL
Hb [5]: 13.7 g/dL
Ht [5]: 39.6%
Lym [5]: 83.4%
MCH [5]: 21.2 pg
MCHC [5]: 34.5%
MCV [5]: 61.3 fL
Mono [5]: 3%
Neu [5]: 11%
PT [5]: 16.3 s
Plat [5]: 130.9 x10_4/uL
RBC [5]: 646.2 x10_4/ul
Ret [5]: 2.4%
WBC [5]: 69.9 x10_2/uL
KIDNEY_L [5]: 1 g
KIDNEY_R [5]: 1 g
KIDNEY_TOTAL [5]: 2 g
LIVER [5]: 9.3 g
A/G [5]: 1.2
ALP [5]: 1285.8 IU/L
ALT [5]: 37 IU/L
AST [5]: 63.2 IU/L
BUN [5]: 16 mg/dL
CRE [5]: 0.2 mg/dL
Ca [5]: 10.6 mg/dL
Cl [5]: 109.2 meq/L
DBIL [5]: 0.004 mg/dL
GLC [5]: 160 mg/dL
IP [5]: 5.8 mg/dL
K [5]: 4.5 meq/L
LDH [5]: 206.4 IU/L
Na [5]: 141.6 meq/L
PL [5]: 140 mg/dL
RALB [5]: 3 g/dL
TBIL [5]: 0.014 mg/dL
TC [5]: 77.8 mg/dL
TG [5]: 53.4 mg/dL
TP [5]: 5.6 g/dL
gamma-GTP [5]: 1.4 IU/L
TERMINAL_BW [6]: 227.1 g
TERMINAL_BW [7]: 262.8 g
TERMINAL_BW [8]: 323 g
APTT [6]: 23 s
Bas [6]: 0%
Eos [6]: 0.8%
Fbg [6]: 332.6 mg/dL
Hb [6]: 14.1 g/dL
Ht [6]: 40.5%
Lym [6]: 86.8%
MCH [6]: 20.9 pg
MCHC [6]: 34.8%
MCV [6]: 59.9 fL
Mono [6]: 2.4%
Neu [6]: 8.6%
PT [6]: 15.9 s
Plat [6]: 140.5 x10_4/uL
RBC [6]: 676 x10_4/ul
Ret [6]: 1.6%
WBC [6]: 87 x10_2/uL
APTT [7]: 24.6 s
Bas [7]: 0%
Eos [7]: 0.2%
Fbg [7]: 332.6 mg/dL
Hb [7]: 14.1 g/dL
Ht [7]: 40.7%
Lym [7]: 87.4%
MCH [7]: 20.1 pg
MCHC [7]: 34.6%
MCV [7]: 58.1 fL
Mono [7]: 2%
Neu [7]: 9.2%
PT [7]: 15.6 s
Plat [7]: 134.2 x10_4/uL
RBC [7]: 700.8 x10_4/ul
Ret [7]: 2.7%
WBC [7]: 76.8 x10_2/uL
APTT [8]: 25.9 s
Bas [8]: 0%
Eos [8]: 1.4%
Fbg [8]: 333.4 mg/dL
Hb [8]: 14.8 g/dL
Ht [8]: 40.7%
Lym [8]: 79%
MCH [8]: 19.9 pg
MCHC [8]: 36.3%
MCV [8]: 54.8 fL
Mono [8]: 3%
Neu [8]: 15.6%
PT [8]: 16.1 s
Plat [8]: 120.7 x10_4/uL
RBC [8]: 744 x10_4/ul
Ret [8]: 3.3%
WBC [8]: 65.8 x10_2/uL
KIDNEY_L [6]: 1.1 g
KIDNEY_R [6]: 1.1 g
KIDNEY_TOTAL [6]: 2.2 g
KIDNEY_L [7]: 1.2 g
KIDNEY_R [7]: 1.2 g
KIDNEY_TOTAL [7]: 2.4 g
KIDNEY_L [8]: 1.4 g
KIDNEY_R [8]: 1.4 g
KIDNEY_TOTAL [8]: 2.8 g
LIVER [6]: 11.1 g
LIVER [7]: 13.6 g
LIVER [8]: 18.5 g
A/G [6]: 1.1
ALP [6]: 1454.4 IU/L
ALT [6]: 31.6 IU/L
AST [6]: 53.4 IU/L
BUN [6]: 15.6 mg/dL
CRE [6]: 0.2 mg/dL
Ca [6]: 10.7 mg/dL
Cl [6]: 109 meq/L
DBIL [6]: 0 mg/dL
GLC [6]: 174.2 mg/dL
IP [6]: 7 mg/dL
K [6]: 4.3 meq/L
LDH [6]: 176.6 IU/L
Na [6]: 141.2 meq/L
PL [6]: 147.4 mg/dL
RALB [6]: 3 g/dL
TBIL [6]: 0.006 mg/dL
TC [6]: 75.2 mg/dL
TG [6]: 98.6 mg/dL
TP [6]: 5.7 g/dL
gamma-GTP [6]: 1.6 IU/L
A/G [7]: 1.1
ALP [7]: 1344.2 IU/L
ALT [7]: 34.2 IU/L
AST [7]: 49.4 IU/L
BUN [7]: 19.2 mg/dL
CRE [7]: 0.1 mg/dL
Ca [7]: 10.8 mg/dL
Cl [7]: 110.2 meq/L
DBIL [7]: 0 mg/dL
GLC [7]: 170.4 mg/dL
IP [7]: 6.8 mg/dL
K [7]: 4.3 meq/L
LDH [7]: 135.6 IU/L
Na [7]: 144.4 meq/L
PL [7]: 143 mg/dL
RALB [7]: 3.1 g/dL
TBIL [7]: 0.012 mg/dL
TC [7]: 69.2 mg/dL
TG [7]: 93.6 mg/dL
TP [7]: 6 g/dL
gamma-GTP [7]: 2.6 IU/L
A/G [8]: 1
ALP [8]: 1076.6 IU/L
ALT [8]: 39 IU/L
AST [8]: 43 IU/L
BUN [8]: 20.2 mg/dL
CRE [8]: 0.1 mg/dL
Ca [8]: 10.7 mg/dL
Cl [8]: 106.2 meq/L
DBIL [8]: 0 mg/dL
GLC [8]: 178 mg/dL
IP [8]: 7 mg/dL
K [8]: 4.2 meq/L
LDH [8]: 118 IU/L
Na [8]: 144.2 meq/L
PL [8]: 170 mg/dL
RALB [8]: 3.4 g/dL
TBIL [8]: 0.042 mg/dL
TC [8]: 77.6 mg/dL
TG [8]: 143.6 mg/dL
TP [8]: 6.6 g/dL
gamma-GTP [8]: 4 IU/L
